The record followed here is patent publication US9273058B2 (BRISTOL-MYERS SQUIBB COMPANY, priority 2013, dated 2016).

The target of one experiment is CK1δ (Homo sapiens, UniProt P48730). The experiment in a line: CK1δ kinase assay (Caliper LabChip electrophoretic separation of fluoresceinated peptide substrate and product). It counts as biochemical. The following applies: 200 pM CK1δ, 50 μM ATP, 1.5 μM peptide, 22 hours at room temperature. The method in brief: (§1)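 Compounds, taken from 10 mM DMSO stocks, are titrated at eleven concentrations. Kinase reactions proceed for 22 hours at room temperature and are quenched with EDTA. Substrate and product are resolved electrophoretically, and IC50 values are fitted by non-linear regression.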
Sequence of CK1δ (P48730 whole entry): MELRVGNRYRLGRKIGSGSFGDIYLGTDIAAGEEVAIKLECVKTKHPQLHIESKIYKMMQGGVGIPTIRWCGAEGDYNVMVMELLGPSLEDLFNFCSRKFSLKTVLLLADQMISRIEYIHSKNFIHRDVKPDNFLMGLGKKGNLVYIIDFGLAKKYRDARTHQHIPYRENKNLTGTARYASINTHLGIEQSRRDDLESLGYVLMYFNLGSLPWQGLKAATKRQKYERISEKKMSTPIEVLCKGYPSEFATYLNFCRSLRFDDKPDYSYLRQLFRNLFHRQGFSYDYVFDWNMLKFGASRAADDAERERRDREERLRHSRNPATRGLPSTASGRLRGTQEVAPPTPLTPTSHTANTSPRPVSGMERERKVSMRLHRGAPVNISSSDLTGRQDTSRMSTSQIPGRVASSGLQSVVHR

The next experiment concerns the target CK1ε (Homo sapiens, UniProt P49674). As to the kind of experiment: CK1ε kinase assay (Caliper LabChip electrophoretic separation of fluoresceinated peptide substrate and product). Type of experiment: biochemical. Conditions: 200 pM CK1ε, 50 μM ATP, 1.5 μM peptide, 22 hours at room temperature. The procedure, abridged:
as §1

Where two headings read alike, the source gives them in different places.

Sequence of CK1ε (P49674 whole entry): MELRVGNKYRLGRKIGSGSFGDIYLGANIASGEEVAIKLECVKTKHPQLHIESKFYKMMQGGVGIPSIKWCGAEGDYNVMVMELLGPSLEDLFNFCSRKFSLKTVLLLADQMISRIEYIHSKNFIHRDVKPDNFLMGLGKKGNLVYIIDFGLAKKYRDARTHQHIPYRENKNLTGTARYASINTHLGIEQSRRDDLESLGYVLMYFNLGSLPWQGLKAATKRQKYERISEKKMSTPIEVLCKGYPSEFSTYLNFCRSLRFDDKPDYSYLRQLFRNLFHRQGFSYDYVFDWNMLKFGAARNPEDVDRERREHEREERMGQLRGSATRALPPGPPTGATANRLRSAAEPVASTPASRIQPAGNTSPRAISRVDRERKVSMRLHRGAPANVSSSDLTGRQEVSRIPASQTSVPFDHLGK

Consider `Cn1nccc1NC(=O)N1CCn2nc(-c3cccc(F)c3)c(C(N)=O)c2C1` [Compound 96, 2-(3-Fluorophenyl)-N^5-(1-methyl-1H-pyrazol-5-yl)-6,7-dihydropyrazolo[1,5-a]pyrazine-3,5(4H)-dicarboxamide], for which the IC50 on CK1δ (read-out: CK1δ IC50 range) and at CK1ε (read-out: CK1ε IC50 range) was 10 to 100 nM each time.

For the compound `NC(=O)c1c(-c2cccc(Cl)c2)nn2c1CN(C(=O)NC13CCC(C(F)F)(CC1)CC3)CC2` [Compound A77, 2-(3-Chlorophenyl)-N^5-(4-(difluoromethyl)bicyclo[2.2.2]octan-1-yl)-6,7-dihydropyrazolo[1,5-a]pyrazine-3,5(4H)-dicarboxamide], the IC50 on CK1δ (read-out: CK1δ IC50 range) and on CK1ε (read-out: CK1ε IC50 range) was 0.01 to 10 nM each time.

In the case of `CC(C)(C)NC(=O)N1CCn2nc(-c3cc(F)cc(C(F)(F)F)c3)c(C(N)=O)c2C1` [Compound 155, N^5-(tert-Butyl)-2-(3-fluoro-5-(trifluoromethyl)phenyl)-6,7-dihydropyrazolo[1,5-a] pyrazine-3,5(4H)-dicarboxamide], the IC50 on CK1δ (read-out: CK1δ IC50 range) and at CK1ε (read-out: CK1ε IC50 range) was 100 to 2000 nM throughout.

In the case of `N#CCC1(NC(=O)N2CCn3nc(-c4ccc(F)c(Cl)c4)c(C(N)=O)c3C2)CCC1` [Compound 220, 2-(3-Chloro-4-fluorophenyl)-N^5-(1-(cyanomethyl)cyclobutyl)-6,7-dihydro pyrazolo[1,5-a]pyrazine-3,5(4H)-dicarboxamide], the IC50 at CK1δ (read-out: CK1δ IC50 range) and at CK1ε (read-out: CK1ε IC50 range) was 0.01 to 10 nM each time.

Turning to `CC(C)(O)[C@@H]1CN(C(=O)NC2CC(F)(F)C2)Cc2c(C(N)=O)c(-c3ccc(F)c(Cl)c3)nn21` [Compound A19, (S)-2-(3-Chloro-4-fluorophenyl)-N^5-(3,3 - difluorocyclobutyl)-7-(2-hydroxypropan-2-yl)-6,7-dihydropyrazolo[1,5-a] pyrazine-3,5(4H)-dicarboxamide], the IC50 at CK1δ (read-out: CK1δ IC50 range) and on CK1ε (read-out: CK1ε IC50 range) was 10 to 100 nM throughout.

As to `NC(=O)c1c(-c2cccc(F)c2)nn2c1CN(C(=O)Nc1ccncc1)CC2` [Compound 92, 2-(3-Fluorophenyl)-N^5-(pyridin-4-yl)-6,7-dihydropyrazolo[1,5-a]pyrazine-3,5(4H)-dicarboxamide], the figures for the IC50 on CK1δ (read-out: CK1δ), on CK1δ (read-out: CK1δ IC50 range) and at CK1ε (read-out: CK1ε IC50 range) were 446 nM, 100 to 2000 nM and 100 to 2000 nM, respectively.

Turning to `NC(=O)c1c(-c2ccc(F)c(Cl)c2)nn2c1CN(C(=O)NC1(C(F)F)CC(F)(F)C1)CC2` [Compound 304, 2-(3-Chloro-4-fluorophenyl)-N^5-(1-(difluoromethyl)-3,3-difluorocyclobutyl)-6,7-dihydropyrazolo[1,5-a]pyrazine-3,5(4H)-dicarboxamide], the IC50 at CK1δ (read-out: CK1δ IC50 range) and at CK1ε (read-out: CK1ε IC50 range) was 0.01 to 10 nM in each case.

Take `NC(=O)c1c(-c2ccc(F)c(Cl)c2)nn2c1CN(C(=O)NC1CC(F)(F)C1)C[C@@H]2CF` [Compound A114, (R)-2-(3-Chloro-4-fluorophenyl)-N^5-(3,3-difluorocyclobutyl)-7-(fluoromethyl)-6,7-dihydropyrazolo[1,5-a]pyrazine-3,5(4H)-dicarboxamide]: the IC50 on CK1δ (read-out: CK1δ IC50 range) and at CK1ε (read-out: CK1ε IC50 range) was 0.01 to 10 nM each time.

Regarding `C[C@@H]1CN(C(=O)NC2CC(F)(F)C2)Cc2c(C(N)=O)c(-c3ccc(Cl)c(Cl)c3)nn21` [Compound A35, (R)-2-(3,4-Dichlorophenyl)-N^5-(3,3-difluorocyclobutyl)-7-methyl-6,7-dihydropyrazolo[1,5-a]pyrazine-3,5(4H)-dicarboxamide], the IC50 on CK1δ (read-out: CK1δ IC50 range) and at CK1ε (read-out: CK1ε IC50 range) was 0.01 to 10 nM throughout.

Consider `CC(C)(C)NC(=O)N1CCn2nc(-c3cccc(C(F)(F)F)c3)c(C(N)=O)c2C1` [Compound 110, N^5-(tert-Butyl)-2-(3-(trifluoromethyl)phenyl)-6,7-dihydropyrazolo[1,5-a] pyrazine-3,5(4H)-dicarboxamide], for which the IC50 on CK1δ (read-out: CK1δ) is 83.9 nM; on CK1δ (read-out: CK1δ IC50 range), 10 to 100 nM; at CK1ε (read-out: CK1ε) it was 156 nM; at CK1ε (read-out: CK1ε IC50 range) it was 100 to 2000 nM.

For the compound `CC(C)(C)NC(=O)N1CCn2nc(-c3cn[nH]c3)c(C(N)=O)c2C1` [Compound 145, N^5-(tert-Butyl)-2-(1H-pyrazol-4-yl)-6,7-dihydropyrazolo[1,5-a] pyrazine-3,5(4H)-dicarboxamide], the IC50 on CK1δ (read-out: CK1δ) was 1050 nM; on CK1δ (read-out: CK1δ IC50 range), 100 to 2000 nM; on CK1ε (read-out: CK1ε) it was 1820 nM; on CK1ε (read-out: CK1ε IC50 range) it was 100 to 2000 nM.

For `CC1(C)C2CCC1(NC(=O)N1CCn3nc(-c4ccc(F)c(Cl)c4)c(C(N)=O)c3C1)CC2F` (stereo not shown) [Compound A67, 2-(3-Chloro-4-fluorophenyl)-N^5-(3-fluoro-7,7-dimethylbicyclo[2.2.1]heptan-1-yl)-6,7-dihydropyrazolo[1,5-a]pyrazine-3,5(4H)-dicarboxamide], the IC50 on CK1δ (read-out: CK1δ IC50 range) and at CK1ε (read-out: CK1ε IC50 range) was 0.01 to 10 nM in each case.

For `NC(=O)c1c(-c2cccc(F)c2)nn2c1CN(C(=O)NC1CCC(F)(F)CC1)CC2` [Compound 12, N^5-(4,4-Difluorocyclohexyl)-2-(3-fluorophenyl)-6,7-dihydropyrazolo[1,5-a]pyrazine-3,5(4H)-dicarboxamide], the results for the IC50 at CK1δ (read-out: CK1δ IC50 range) and at CK1ε (read-out: CK1ε IC50 range) were 10 to 100 nM and 100 to 2000 nM, respectively.

Take `COC12CCC(NC(=O)N3CCn4nc(-c5cccc(Cl)c5)c(C(N)=O)c4C3)(CC1)C(F)(F)C2` [Compound A81, 2-(3-Chlorophenyl)-N^5-(2,2-difluoro-4-methoxybicyclo[2.2.2]octan-1-yl)-6,7-dihydropyrazolo[1,5-a]pyrazine-3,5(4H)-dicarboxamide]: the IC50 on CK1δ (read-out: CK1δ IC50 range) and on CK1ε (read-out: CK1ε IC50 range) was 0.01 to 10 nM in each case.

Turning to `CC1(NC(=O)N2CCn3nc(-c4cc(Cl)cc(Cl)c4)c(C(N)=O)c3C2)CC(F)(F)C1` [Compound 298, 2-(3,5-Dichlorophenyl)-N^5-(3,3-difluoro-1-methylcyclobutyl)-6,7-dihydropyrazolo[1,5-a] pyrazine-3,5(4H)-dicarboxamide], the IC50 on CK1δ (read-out: CK1δ IC50 range) and at CK1ε (read-out: CK1ε IC50 range) was 0.01 to 10 nM each time.

Take `NC(=O)c1c(-c2cccc(F)c2)nn2c1CN(C(=O)Nc1cccnn1)CC2` [Compound 91, 2-(3-Fluorophenyl)-N^5-(pyridazin-3-yl)-6,7-dihydropyrazolo[1,5-a]pyrazine-3,5(4H)-dicarboxamide]: the IC50 on CK1δ (read-out: CK1δ IC50 range) was 10 to 100 nM; at CK1ε (read-out: CK1ε IC50 range), 100 to 2000 nM.

As for `NC(=O)c1c(-c2ccc(Cl)c(Cl)c2)nn2c1CN(C(=O)NC1CC(C(F)F)C1)CC2` (stereo not shown) [Compound 255, 2-(3,4-Dichlorophenyl)-N^5-(3-(difluoromethyl)cyclobutyl)-6,7-dihydropyrazolo[1,5-a]pyrazine-3,5(4H)-dicarboxamide], the IC50 on CK1δ (read-out: CK1δ IC50 range) and at CK1ε (read-out: CK1ε IC50 range) was 0.01 to 10 nM in each case.

Consider `CC1Cn2nc(-c3ccc(F)c(Cl)c3)c(C(N)=O)c2CN1C(=O)NC1CC(F)(F)C1` (single isomer, unassigned) [Compound 343, 2-(3-Chloro-4-fluorophenyl)-N^5-(3,3-difluorocyclobutyl)-6-methyl-6,7-dihydropyrazolo[1,5-a]pyrazine-3,5(4H)-dicarboxamide], for which the IC50 on CK1δ (read-out: CK1δ IC50 range) and on CK1ε (read-out: CK1ε IC50 range) was 0.01 to 10 nM throughout.

For the compound `CC1(NC(=O)N2CCn3nc(-c4cccc(Cl)c4)c(C(N)=O)c3C2)CC1` [Compound A42, 2-(3-Chlorophenyl)-N^5-(1-methylcyclopropyl)-6,7-dihydropyrazolo[1,5-a]pyrazine-3,5(4H)-dicarboxamide], the IC50 on CK1δ (read-out: CK1δ IC50 range) and at CK1ε (read-out: CK1ε IC50 range) was 0.01 to 10 nM throughout.
